# Test results from US8658564B2, “Fungicide active ingredient combinations” (Bayer Cropscience AG, priority 2007, dated 2014).
# What was measured:
# [1] = tested on: Rhizoctonia solani; experiment: Rhizoctonia solani test (in vitro)/microtitre plates; format: cell-based; details: 120 h, application rate 0.1 ppm, 5 days incubation, PDB medium, read-out: % efficacy
# Method: Rhizoctonia solani Test (In Vitro)/Microtitre Plates The microtest is carried out in microtitre plates using Potato Dextrose Broth (PDB) as liquid test medium. The active compounds are used as technical-grade a.i., dissolved in methanol. For inoculation, a mycelium suspension of Rhizoctonia solani is used. After 5 days of incubation in the dark and with shaking (10 Hz), the transparency of each filled cavity of the microtitre plates is determined with the aid of a spectrophotometer. Here, 0% means an efficacy which corresponds to the growth in the controls, whereas an efficacy of 100% means that no fungal growth is observed.
# [2] = tested on: Leptosphaeria nodorum; experiment: Leptosphaeria nodorum test (wheat)/protective; format: in vivo, Leptosphaeria nodorum on wheat; details: evaluation 10 days after inoculation
# Method: Leptosphaeria nodorum Test (Wheat)/Protective • Solvent: 50 parts by weight of N,N-dimethylacetamide • Emulsifier: 1 part by weight of alkylaryl polyglycol ether To produce a suitable preparation of active compound, 1 part by weight of active compound is mixed with the stated amounts of solvent and emulsifier, and the concentrate is diluted with water to the desired concentration. To test for protective activity, young plants are sprayed with the active compound preparation at the stated application rate. After the spray coating has dried on, the plants are sprayed with a spore suspension of Leptosphaeria nodorum. The plants remain in an incubation cabin at 20° C. and 100% relative atmospheric humidity for 48 hours. The plants are placed in a greenhouse at a temperature of about 20° C. and a relative atmospheric humidity of 80%. Evaluation is carried out 10 days after the inoculation. Here, 0% means an efficacy which corresponds to that of the control, whereas an efficacy of 100% means that no infection is observed.
# [3] = tested on: Pyrenophora teres; experiment: Pyrenophora teres test (barley)/protective; format: in vivo, Pyrenophora teres on barley; details: 62.5 g/ha; evaluation 10 days after inoculation
# Method: Pyrenophora teres Test (Barley)/Protective • Solvent: 50 parts by weight of N,N-dimethylacetamide • Emulsifier: 1 part by weight of alkylaryl polyglycol ether To produce a suitable preparation of active compound, 1 part by weight of active compound or active compound combination is mixed with the stated amounts of solvent and emulsifier, and the concentrate is diluted with water to the desired concentration, or a commercial formulation of active compound or active compound combination is diluted with water to the desired concentration. To test for protective activity, young plants are sprayed with the active compound preparation at the stated application rate. After the spray coating has dried on, the plants are sprayed with a conidia suspension of Pyrenophora teres. The plants remain in an incubation cabin at 20° C. and 100% relative atmospheric humidity for 48 hours. The plants are then placed in a greenhouse at a temperature of about 20° C. and a relative atmospheric humidity of about 80%. Evaluation is carried out 10 days after the inoculation. Here, 0% means an efficacy which corresponds to that of the control, whereas an efficacy of 100% means that no infection is observed.
Structure (SMILES),Emax at 0.1 ppm [1] [%],Efficacy in % found ([2]; 62.5 g/ha) [%],Efficacy in % found [3] [%],Efficacy in % found ([2]; 125 g/ha) [%]
"CC(C)(C)C(O)(CCc1ccc(Cl)cc1)Cn1cncn1 (racemic) [Tebuconazole, (RS)-1-p-chlorophenyl-4,4-dimethyl-3-(1H-1,2,4-triazol-1-ylmethyl)-pentan-3-ol]",13,56,,
"Cc1nn(C)c(F)c1C(=O)Nc1ccccc1C(C)CC(C)C (stereo not shown) [(I), N-[2-(1,3-Dimethylbutyl)phenyl]-5-fluoro-1,3-dimethyl-1H-pyrazole-4-carboxamide]",,0,67,
"OC(Cc1ccccc1Cl)(Cn1nc[nH]c1=S)C1(Cl)CC1 (stereo not shown) [(II) Prothioconazole, prothioconazole]",,,44,
"COCC(=O)N(c1c(C)cccc1C)C(C)C(=O)OC (stereo not shown) [(III) Metalaxyl, metalaxyl]",,,0,11
